These results are taken from patent US9969709B2, “Guanidinobenzoic acid ester compound” (Takeda Pharmaceutical Company Limited, priority 2013, dated 2018).

Experiment [1] deals with T1, human recombinant trypsin (rh-trypsin) (Homo sapiens, UniProt P07477).
T1 construct: purchased Wako Pure Chemical Industries, Ltd. 206-17171
The experiment is described as follows: Trypsin inhibitory activity, human recombinant trypsin, BZiPAR fluorescent substrate. It is filed as biochemical. The settings on record: 30 min at room temperature, read-out: r-h Trypsin inhibitory activity (IC50). As to the method: (§1) 1. Confirmation of Trypsin Inhibitory Activity in Humans and Mice In the experiment, human recombinant trypsin (rh-trypsin; manufactured by Wako Pure Chemical Industries, Ltd.), cat. #206-17171) and mouse trypsin (m-trypsin; purified from the mouse small intestine contents by the present inventors) were used. The method for purifying m-trypsin from the contents of the mouse small intestine is shown below. The compound was dissolved in dimethyl sulfoxide (DMSO), and diluted to an arbitrary concentration (A). A was 100-fold diluted with a buffer (0.1 M Tris (pH 8.0), 0.15 M NaCl, 10 mM CaCl2, 0.05% Brij35) (B). The rh-trypsin was diluted with a buffer to 0.088 μg/mL, and for the m-trypsin, the purified fraction liquid was 50-fold diluted with the buffer (C). […] A BZiPAR solution (Rhodamine Reference Substrate) which is substrate for the trypsin enzyme was diluted with the buffer to […] (D). 5 μL of B, 5 μL of C, and 10 μL of D were added to a 384-well plate, and incubated at room temperature for 30 minutes. Fluorescent signals were detected at a maximum excitement (Ex)/fluorescent wavelength (Em)=497 nm/520 nm using a Tecan Safire Fluorometer. […] Based on the obtained inhibitory rates, the trypsin inhibitory activities (IC50 values, nM) were calculated from the non-linear regression.

The test system of experiment [2] is T2, mouse trypsin (m-trypsin).
T2 construct: mouse trypsin (m-trypsin)
In words: Trypsin inhibitory activity, mouse trypsin purified from small intestine contents, BZiPAR fluorescent substrate. The format is biochemical. The conditions noted are these: 30 min at room temperature.
Excerpt: 1. Confirmation of Trypsin Inhibitory Activity in Humans and Mice
In the experiment, human recombinant trypsin (rh-trypsin; manufactured by Wako Pure Chemical Industries, Ltd.), cat. #206-17171) and mouse trypsin (m-trypsin; purified from the mouse small intestine contents by the present inventors) were used. The method for purifying m-trypsin from the contents of the mouse small intestine is shown below.
The small intestine contents and the gastrointestinal tract obtained from 10 mice were homogenized in phosphate buffer saline (PBS) using Polytron, and subjected to centrifugation several times at 15,000×g for 10 minutes. The supernatant was mixed at 4° C. for 16 hours with a Benzamidine Sepharose 4 Fast Flow Resin (GE Healthcare: #17-5123-10). After washing the resin with PBS, m-trypsin was eluted with a glycine buffer (pH 3.0) to carry out purification. It was confirmed by Western blot analysis that the obtained purified fraction was recognized as an Anti-mouse Trypsin Antibody (Santa Cruz Biotechnology, Inc.: sc-67388). The method for measuring the trypsin inhibiting activity is shown below.
as §1, with “The” for “1. Confirmation of Trypsin Inhibitory Activity in Humans and Mice In the experiment, human recombinant trypsin (rh-trypsin; manufactured by Wako Pure Chemical Industries, Ltd.), cat. #206-17171) and mouse trypsin (m-trypsin; purified from the mouse small intestine contents by the present inventors) were used. The method for purifying m-trypsin from the contents of the mouse small intestine is shown below. The”

Experiment [3] has as its system ICR mice. In words: Test of increase in fecal protein concentration using mice. The format is in vivo, mouse. The conditions noted are these: Mus musculus, po, 9 h, 5 mg/kg oral, male ICR mice, feces collected 3 to 9 hours after feeding started, control group = 1; read-out: Fecal protein, Folds (vs. control). As to the method: 2. Test of Increase in Fecal Protein Concentration Using Mice
For the experiment, 6-week old male ICR mice were used. The experiment was carried out in five mice per group. After fasting the mice for 15 hours, the control group was forcibly orally administered with a 0.5% methyl cellulose (MC) solution, and the test drug group was forcibly orally administered (5 mg/kg) with a solution or suspension obtained by dissolving or suspending the compound in the 0.5% MC solution. The fasting was stopped immediately thereafter, free feeding (CE-2) was started, and then the feces were collected from after 3 hours to after 9 hours, and weighed. All of the obtained feces were suspended in 6 mL of distilled water, and centrifuged at 1,940×g for 10 minutes. The protein concentration in the obtained supernatant was measured by a Bradford method, and the amount of the protein in 1 g of feces was calculated by dividing the protein concentration in the feces by the total weight of feces. Further, the efficacy was investigated from the ratio to the control group. For the compounds that were evaluated multiple times, the average values were calculated.
The results of the activities with an increase in Fecal Protein, assuming a value for the control group as 1, are shown in Table 2.

Experiment [4] has as its system Wistar rats. In words: Rat uninephrectomy doxorubicin (DXR)-induced nephropathy model (renal function reduced model). The settings on record: 10 mg/kg oral twice daily, week 3, vs control group. It is filed as in vivo. As to the method:
3. Test of Rat Uninephrectomy Doxorubicin (DXR)-Induced Nephropathy Model (Renal Function Reduced Model) Uninephrectomy was performed in the left kidney of 10-week old male Wistar rats, and one week later, DXR (5 mg/kg) was administered to the rats via the caudal vein to induce a nephropathy model. The experiment was carried out in ten rats per group. During the period of administering the compound, the rats were fed with diet only in daytime, while fasted in nighttime. A test compound (10 mg/kg) was suspended in a 0.5% methylcellulose (MC) solution from the day after the preparation of the model, and was forcibly orally administered twice (morning and night) daily. To each of a sham (normal) group and a control group, 0.5% MC was forcibly orally administered. At 1, 2, and 3 weeks after the start of administration of the test compound, 24-hour urine collection was each performed to measure the amount of the protein excretion in urine. Blood collection was performed after the end of the urine collection at week 3, and the concentration of creatinine in plasma was measured.

In the case of `N=C(N)Nc1ccc(C(=O)Oc2ccc3c(C(=O)N[C@@H](Cc4ccc(C(=O)O)cc4)C(=O)O)csc3c2)cc1` [Example 47], the results for the half-inhibitory concentration (IC50) in experiment [1] and in experiment [2] were 0.26 nM and 0.29 nM, respectively. Also, in experiment [3], the response vs control in vivo at 5 mg/kg was determined as 191%.

With `N=C(N)Nc1ccc(C(=O)Oc2ccc3c(c2)CCC(C(=O)N(CC(=O)O)Cc2ccc(CC(=O)O)cc2)C3)cc1` (centres unmarked) [Example 20], the IC50 (as a rule, the concentration that inhibits the measured activity by half) in experiment [1] turned out to be 0.47 nM; in experiment [2], 0.77 nM. Also, the response vs control in vivo at 5 mg/kg in experiment [3] amounted to 223%.

`N=C(N)Nc1ccc(C(=O)Oc2ccc3c(C(=O)N(CCC(=O)O)Cc4csc(C(=O)O)c4)csc3c2)cc1` [Example 54]: the IC50 stood at 0.29 nM in experiment [1] and 0.46 nM in experiment [2]. In experiment [3], the response vs control in vivo at 5 mg/kg stood at 170%.

Turning to `N=C(N)Nc1ccc(C(=O)Oc2ccc3c(c2)CCCC3CC(=O)N2Cc3cc(C(=O)O)ccc3C[C@@H]2C(=O)O)cc1` (some centres unmarked) [Example 30], the concentration for half-maximal inhibition (IC50) worked out at 0.25 nM in experiment [1] and 0.28 nM in experiment [2]. The response vs control in vivo at 5 mg/kg in experiment [3] amounted to 168%.

Consider `Cl.N=C(N)Nc1ccc(C(=O)Oc2ccc3c(c2)CCCC3CC(=O)N(CC(=O)O)Cc2cccc(C(=O)O)c2)cc1` (centres unmarked) [Example 2, 3-{[({6-[(4-carbamimidamnidobenzoyl)oxy]-1,2,3,4-tetrahydronaphthalen-1-yl}acetyl)(carboxymethyl)amino]methyl}benzoic acid monohydrochloride], for which the IC50 in experiment [1] came out at 0.4 nM. The concentration for half-maximal inhibition (IC50) in experiment [2] amounted to 0.51 nM. The response vs control in vivo at 5 mg/kg in experiment [3] worked out at 255%. In addition, in experiment [4], the “inhibitory rate of the amount of protein excretion in urine” value is reported as “about 42%” and the “inhibitory rate of the creatinine concentration in plasma” value was “about 42%”.

As for `C[C@H](C(=O)O)N(Cc1csc(C(=O)O)c1)C(=O)CC1CCCc2cc(OC(=O)c3ccc(NC(=N)N)cc3)ccc21` (single isomer, unassigned) [Example 7, 4-({({(1R)-6-[(4-carbamimidamidobenzoyl)oxy]-1,2,3,4-tetrahydronaphthalen-1-yl}acetyl) [(1R)-1-carboxyethyl]amino}methyl)thiophene-2-carboxylic acid or an epimer at position 1 of the 1,2,3,4-tetrahydronaphthalene], the IC50 in experiment [1] is 0.3 nM; in experiment [2], 0.26 nM. For the same compound, the response vs control in vivo at 5 mg/kg in experiment [3] is 183%.

On to `N=C(N)Nc1ccc(C(=O)Oc2ccc3c(C(=O)N(CC(=O)O)Cc4csc(C(=O)O)c4)csc3c2)cc1` [Example 13], for which the IC50 came to 0.25 nM in experiment [1] and 0.36 nM in experiment [2]. In addition, in experiment [3], the response vs control in vivo at 5 mg/kg came to 273%.

As to `N=C(N)Nc1ccc(C(=O)Oc2ccc3c(C(=O)N(CC(=O)O)Cc4cccc(C(=O)O)c4)csc3c2)cc1` [Example 60], the results for the half-inhibitory concentration (IC50) in experiment [1] and in experiment [2] were 0.33 nM and 0.31 nM, respectively. Further, the response vs control in vivo at 5 mg/kg in experiment [3] is 226%.

In the case of `N=C(N)Nc1ccc(C(=O)Oc2ccc3c(C(=O)N(CC(=O)O)Cc4ccc(CC(=O)O)cc4)csc3c2)cc1` [Example 23], the IC50 in experiment [1] and in experiment [2] was 0.46 nM each time. Further, the response vs control in vivo at 5 mg/kg in experiment [3] is 253%.

`N=C(N)Nc1ccc(C(=O)Oc2ccc3c(c2)CCCC3CC(=O)N(CC(=O)O)Cc2ccc3sc(C(=O)O)cc3c2)cc1` (centres unmarked) [Example 25]: the values for the IC50 in experiment [1] and in experiment [2] were 0.28 nM and 0.35 nM, respectively. Besides, in experiment [3], the response vs control in vivo at 5 mg/kg worked out at 135%.

Take `N=C(N)Nc1ccc(C(=O)Oc2ccc3c(c2)CCC3CC(=O)N(CC(=O)O)Cc2ccc3sc(C(=O)O)cc3c2)cc1` (centres unmarked) [Example 51]: the results for the half-inhibitory concentration (IC50) in experiment [1] and in experiment [2] were 0.34 nM and 0.38 nM, respectively. In addition, in experiment [3], the response vs control in vivo at 5 mg/kg came to 166%.
